Data as given in ChEMBL document CHEMBL5154775, “Oxetane Promise Delivered: Discovery of Long-Acting IDO1 Inhibitors Suitable for Q3W Oral or Parenteral Dosing” (J Med Chem, 2022).
≈ marks a conversion by molar mass, not a printed value.

Experiments:
[1] = molecular target: T1, Indoleamine 2,3-dioxygenase 1 (Homo sapiens, UniProt P14902); test: Inhibition of IDO1 in IFNgamma/LPS stimulated human whole blood assessed as unbound concentration using kynurenine/tryptophan as substrate preincubated with compound for 15 mins followed by incubation with IFNgamma/LPS for 18 hrs by LC/MS/MS analysis; format: tissue-based
Target sequence in this assay (P14902 whole entry): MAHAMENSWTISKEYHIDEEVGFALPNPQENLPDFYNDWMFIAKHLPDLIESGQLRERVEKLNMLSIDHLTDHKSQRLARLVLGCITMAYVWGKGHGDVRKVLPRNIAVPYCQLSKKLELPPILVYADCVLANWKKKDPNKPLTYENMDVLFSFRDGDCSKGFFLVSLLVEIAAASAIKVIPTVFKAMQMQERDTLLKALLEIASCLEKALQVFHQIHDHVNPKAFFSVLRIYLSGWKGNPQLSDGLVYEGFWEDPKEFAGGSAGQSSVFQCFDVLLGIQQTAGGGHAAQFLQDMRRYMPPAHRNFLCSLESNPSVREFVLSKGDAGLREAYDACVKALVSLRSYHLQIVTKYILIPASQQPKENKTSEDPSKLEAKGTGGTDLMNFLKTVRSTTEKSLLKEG

[2] = Solubility of compound at pH 2; format: physicochemical; conditions: buffer
[3] = Solubility of compound at pH 7; format: physicochemical; conditions: buffer
[4] = Unbound intrinsic clearance in human hepatocytes; format: ADME, cell-based, Hepatocyte
[5] = Unbound intrinsic clearance in rat hepatocytes; format: ADME, cell-based, Hepatocyte
[6] = molecular target: T1, Indoleamine 2,3-dioxygenase 1; test: Inhibition of IDO1 in IFN gamma-stimulated human HeLa cells measured after 48 hrs by fluorescence based microplate reader assay; format: cell-based
Target sequence in this assay (P14902 whole entry): as above

[7] = molecular target: Cytochrome P450 2C9 (Homo sapiens, UniProt P11712); test: Inhibition of CYP2C9 (unknown origin); format: ADME
Cytochrome P450 2C9, sequence (P11712 whole entry): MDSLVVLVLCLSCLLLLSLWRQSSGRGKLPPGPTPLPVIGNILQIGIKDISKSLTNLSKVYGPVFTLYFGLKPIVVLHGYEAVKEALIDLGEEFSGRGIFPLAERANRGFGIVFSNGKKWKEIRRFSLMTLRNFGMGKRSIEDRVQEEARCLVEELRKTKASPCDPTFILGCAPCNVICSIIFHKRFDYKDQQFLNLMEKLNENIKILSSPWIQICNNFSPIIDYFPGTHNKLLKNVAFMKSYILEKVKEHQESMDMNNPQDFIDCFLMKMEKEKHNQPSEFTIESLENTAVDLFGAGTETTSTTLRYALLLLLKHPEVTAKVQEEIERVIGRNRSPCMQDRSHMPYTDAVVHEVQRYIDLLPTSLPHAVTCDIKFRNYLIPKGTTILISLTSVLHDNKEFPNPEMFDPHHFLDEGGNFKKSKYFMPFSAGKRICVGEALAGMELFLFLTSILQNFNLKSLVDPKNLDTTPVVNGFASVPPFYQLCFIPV

[8] = molecular target: T1, Indoleamine 2,3-dioxygenase 1; test: Displacement of [3H] labeled-N-(4-Fluorophenyl)-3-(4-(4-(2-hydroxypropan-2-yl)-6-(trifluoromethyl)pyridin-3-yl)phenyl)oxetane-3-carboxamide from human IDO1 assessed as inhibition constant by radioligand binding assay
Target sequence in this assay (P14902 whole entry): as the sequence (P14902 whole entry) above

[9] = molecular target: T1, Indoleamine 2,3-dioxygenase 1; test: Displacement of [3H] labeled-N-(4-Fluorophenyl)-3-(4-(4-(2-hydroxypropan-2-yl)-6-(trifluoromethyl)pyridin-3-yl)phenyl)oxetane-3-carboxamide from human IDO1 assessed as dissociation rate constant by radioligand binding assay
Target sequence in this assay (P14902 whole entry, looked up): as the sequence (P14902 whole entry) above

[10] = molecular target: T1, Indoleamine 2,3-dioxygenase 1; test: Displacement of [3H] labeled-N-(4-Fluorophenyl)-3-(4-(4-(2-hydroxypropan-2-yl)-6-(trifluoromethyl)pyridin-3-yl)phenyl)oxetane-3-carboxamide from human IDO1 assessed as dissociation half life by radioligand binding assay
Target sequence in this assay (P14902 whole entry, looked up): as the sequence (P14902 whole entry) above

[11] = molecular target: Indoleamine 2,3-dioxygenase 1 (Mus musculus) (UniProt P28776); test: In vivo inhibition of human IDO1 knock-in mouse CT26 cells translated in single oral gavage dosed CD1 mouse tumor model assessed as reduction in kynurenine level in tumor measured upto 24 hrs; format: functional, organism-based; conditions: dose 0.3-30 mg/kg, DDE = dose-dependent effect
Indoleamine 2,3-dioxygenase 1 (Mus musculus), sequence (P28776 whole entry, looked up): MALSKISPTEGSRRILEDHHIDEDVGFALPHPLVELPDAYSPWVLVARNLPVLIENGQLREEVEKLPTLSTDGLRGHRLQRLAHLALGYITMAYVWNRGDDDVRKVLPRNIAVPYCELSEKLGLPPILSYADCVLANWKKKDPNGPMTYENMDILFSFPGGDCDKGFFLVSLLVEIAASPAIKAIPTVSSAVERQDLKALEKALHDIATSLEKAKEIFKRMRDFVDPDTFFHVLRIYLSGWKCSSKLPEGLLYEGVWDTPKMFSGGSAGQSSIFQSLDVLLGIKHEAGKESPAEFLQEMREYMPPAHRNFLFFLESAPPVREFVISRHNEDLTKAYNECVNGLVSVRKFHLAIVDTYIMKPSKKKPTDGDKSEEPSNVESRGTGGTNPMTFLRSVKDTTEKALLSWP

[12] = molecular target: Indoleamine 2,3-dioxygenase 1 (Mus musculus) (UniProt P28776); test: In vivo inhibition of human IDO1 knock-in mouse CT26 cells translated in single oral gavage dosed CD1 mouse tumor model assessed as reduction in kynurenine level in plasma measured upto 24 hrs; format: functional, organism-based; conditions: dose 0.3-30 mg/kg, DDE = dose-dependent effect
[13] = Inhibition of potassium channel (unknown origin) current; parameters: species or system Homo sapiens
[14] = Inhibition of Sodium channel (unknown origin) current; parameters: species or system Homo sapiens
[15] = Inhibition of Calcium channel (unknown origin) current; parameters: species or system Homo sapiens
[16] = Half life in Wistar Han rat at 1 mg/kg, po or 0.5 mg/kg, iv by LC-MS/MS analysis; format: ADME, organism-based; conditions: in vivo
[17] = Half life in dog at 0.5 mg/kg, po or 0.25 mg/kg, iv by LC-MS/MS analysis; format: ADME, organism-based, Canis lupus familiaris; conditions: in vivo
[18] = Oral bioavailability in Wistar Han rat using spray-dried dispersion at 1 mg/kg by LC-MS/MS analysis; format: ADME, organism-based; conditions: in vivo
[19] = Oral bioavailability in dog using spray-dried dispersion at 0.5 mg/kg by LC-MS/MS analysis; format: ADME, organism-based, Canis lupus familiaris; conditions: in vivo
[20] = Oral bioavailability in Wistar Han rat using crystalline form of sample at 1 mg/kg by LC-MS/MS analysis; format: ADME, organism-based; conditions: in vivo
[21] = Oral bioavailability in dog using crystalline at 0.5 mg/kg by LC-MS/MS analysis; format: ADME, organism-based, Canis lupus familiaris; conditions: in vivo
[22] = molecular target: Voltage-gated inwardly rectifying potassium channel KCNH2 (Homo sapiens, UniProt Q12809); test: Inhibition of MK-499 binding to hERG; format: toxicity
Voltage-gated inwardly rectifying potassium channel KCNH2, sequence (Q12809 whole entry): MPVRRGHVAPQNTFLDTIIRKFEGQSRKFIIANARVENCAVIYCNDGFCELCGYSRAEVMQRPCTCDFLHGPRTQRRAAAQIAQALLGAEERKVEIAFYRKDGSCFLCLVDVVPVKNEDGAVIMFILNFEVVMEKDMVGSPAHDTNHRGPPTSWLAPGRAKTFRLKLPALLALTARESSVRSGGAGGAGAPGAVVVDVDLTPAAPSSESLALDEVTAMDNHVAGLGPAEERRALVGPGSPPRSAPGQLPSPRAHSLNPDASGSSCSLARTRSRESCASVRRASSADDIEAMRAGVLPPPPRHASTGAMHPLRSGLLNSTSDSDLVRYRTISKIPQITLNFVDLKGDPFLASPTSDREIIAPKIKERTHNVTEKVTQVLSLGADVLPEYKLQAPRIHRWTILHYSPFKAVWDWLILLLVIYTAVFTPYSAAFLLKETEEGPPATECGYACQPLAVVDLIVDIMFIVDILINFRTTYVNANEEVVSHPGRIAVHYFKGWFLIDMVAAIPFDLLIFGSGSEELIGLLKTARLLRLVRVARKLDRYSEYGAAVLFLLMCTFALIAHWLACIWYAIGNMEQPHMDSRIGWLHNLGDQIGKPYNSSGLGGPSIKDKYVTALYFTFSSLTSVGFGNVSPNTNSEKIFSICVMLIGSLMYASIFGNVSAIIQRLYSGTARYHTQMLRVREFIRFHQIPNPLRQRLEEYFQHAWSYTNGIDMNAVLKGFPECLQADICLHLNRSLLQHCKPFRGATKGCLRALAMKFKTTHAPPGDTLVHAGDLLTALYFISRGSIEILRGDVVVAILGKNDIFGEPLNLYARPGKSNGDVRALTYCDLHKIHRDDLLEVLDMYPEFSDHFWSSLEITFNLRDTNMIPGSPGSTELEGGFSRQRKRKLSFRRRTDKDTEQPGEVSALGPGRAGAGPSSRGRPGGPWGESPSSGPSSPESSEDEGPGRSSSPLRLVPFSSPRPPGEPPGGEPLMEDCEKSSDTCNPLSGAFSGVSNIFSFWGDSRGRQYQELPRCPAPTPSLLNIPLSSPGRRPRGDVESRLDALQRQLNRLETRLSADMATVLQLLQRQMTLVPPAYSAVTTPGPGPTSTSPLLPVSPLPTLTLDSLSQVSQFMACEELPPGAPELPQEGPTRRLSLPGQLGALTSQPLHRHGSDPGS

[23] = molecular target: T1, Indoleamine 2,3-dioxygenase 1; test: Displacement of [3H] labeled-N-(4-Fluorophenyl)-3-(4-(4-(2-hydroxypropan-2-yl)-6-(trifluoromethyl)pyridin-3-yl)phenyl)oxetane-3-carboxamide from human IDO1 assessed as dissociation constant by radioligand binding assay
Target sequence in this assay (P14902 whole entry): as the sequence (P14902 whole entry) above

[24] = Half life in rat; format: ADME; conditions: in vivo
[25] = Volume of distribution at steady state in rat; format: ADME; conditions: in vivo
[26] = MRT in rat; format: ADME; conditions: in vivo

Structure (SMILES) | solubility [2] [µM] | solubility [3] [µM] | CL free [4] [mL/min/kg] | CL free [5] [mL/min/kg] | IC50 [6] [nM] | other results
O=C(Nc1ccc(C2(C(=O)Nc3ccc(F)cc3)COC2)cc1)c1cccc(Cl)c1 | – | – | 420 | 250 | – | –
CC(C)(O)c1cc(C(F)(F)F)ncc1-c1ccc(C2(C(=O)Nc3ccc(F)cc3)COC2)cc1 | 124 (≈ 58.8 µg/mL) | 123 (≈ 58.4 µg/mL) | 11 | 12 | 3 | IC50 [1]: 0.29 nM; IC50 [7]: 8640 nM; Ki [8]: 0.11 nM; K [9]: 4.54 10^-3/min; T1/2 [10]: 2.55 h; Activity [11]: Dde; Activity [12]: Dde; IC50 [13]: 12000 nM; IC50 [14]: 40000 nM; IC50 [15]: 8300 nM; half-life [16]: 7.4 h; half-life [17]: 43 h; bioavailability [18]: 62%; bioavailability [19]: 50%; bioavailability [20]: 27%; bioavailability [21]: 16%
Cc1cc(C2CC2)ncc1-c1ccc(C2(C(=O)Nc3ccc(F)cc3)COC2)cc1 | 139 (≈ 55.9 µg/mL) | < 3 | 365 | 6156 | – | IC50 [1]: 0.08 nM
O=C(Nc1ccc(F)cc1)C1(c2ccc(-c3nc(C4CC4)no3)cc2)COC1 | 40 (≈ 15.2 µg/mL) | 141 (≈ 53.5 µg/mL) | 4 | 971 | – | IC50 [22]: 13800 nM
O=C(Nc1ccc(F)cc1)C1(c2ccc(-n3cnc(C4CC4)cc3=O)cc2)COC1 | 140 (≈ 56.8 µg/mL) | 143 (≈ 58 µg/mL) | – | – | – | IC50 [22]: > 60000 nM
O=C(Nc1ccc(F)cc1)C1(c2ccc(-c3cnc(C(F)(F)F)cc3CO)cc2)CC(F)(F)C1 | 16 (≈ 7.69 µg/mL) | 17 (≈ 8.17 µg/mL) | < 6 | < 12 | – | IC50 [7]: 805 nM
Cc1cc(C(F)(F)F)ncc1-c1ccc(C2(C(=O)Nc3ccc(F)cc3)COC2)cc1 | < 3 | < 3 | 330 | 590 | – | –
O=C(Nc1ccc(F)cc1)C1(c2ccc(-c3cnc(C(F)(F)F)cc3CO)cc2)COC1 | 147 (≈ 65.6 µg/mL) | 145 (≈ 64.7 µg/mL) | 19 | < 10 | 2 | IC50 [1]: 2.5 nM; IC50 [22]: 22800 nM; IC50 [7]: 6300 nM; Kd [23]: 0.158 nM; Ki [8]: 0.15 nM
CCCNC(=O)C1(c2ccc(NC(=O)c3cccc(Cl)c3)cc2)CCC1 | – | – | – | – | – | half-life [24]: 0.89 h; Vdss [25]: 180 L/kg; MRT [26]: 0.7 h

Second part, led by results:

solubility [2] [µM] | solubility [3] [µM] | CL free [4] [mL/min/kg] | CL free [5] [mL/min/kg] | IC50 [6] [nM] | Structure (SMILES) | other results
< 3 | < 3 | 689 | 4361 | – | O=C(Nc1ccc(F)cc1)C1(c2ccc(-c3ccc(C4CC4)nc3)cc2)COC1 | IC50 [1]: 377 nM
– | – | – | – | 1170 | CCCNC(=O)C1(c2ccc(-c3ccc(C)nc3)cc2)CCC1 | –
– | – | – | – | > 10000 | CCCNC(=O)C1(c2ccc(-c3ccccn3)cc2)CCC1 | –
< 2 | < 2 | 376 | 1658 | – | O=C(Nc1ccc(F)cc1)C1(c2ccc(-c3cnc(C(F)(F)F)cc3CO)cc2)CCC1 | IC50 [22]: 11900 nM; IC50 [7]: 905 nM
– | – | – | – | > 10000 | CCCNC(=O)C1(c2ccc(-c3ccncc3)cc2)CCC1 | –
– | – | – | – | 8020 | CCCNC(=O)C1(c2ccc(-c3cccnc3)cc2)CCC1 | –
